Values quoted from earlier work, collected in patent US20060099233A1, “Granular formulation of neem seed extract and its process thereof” (E.I.D. Parry (India) Limited, priority 2004, published 2006).
Like-named read-outs stand apart in the source and are kept apart here.

Conditions: 25 days at 29±1° C.

## C/C=C(\C)C(=O)O[C@H]1C[C@@H](OC(C)=O)[C@@]2(C(=O)OC)CO[C@H]3[C@@H](O)[C@@](C)([C@]45O[C@@]4(C)[C@@H]4C[C@H]5O[C@@H]5OC=C[C@@]54O)[C@H]4[C@]1(CO[C@]4(O)C(=O)OC)[C@@H]32 [azadirachtin A]
In ethanol and water
  degradation of azadirachtin A: about 85%
In methanol and acetone
  degradation of azadirachtin A: 50%
In methylene chloride, carbon tetrachloride and chloroform
  degradation of azadirachtin A: 75-80%
